Source: patent publication US9451771B2, “Compositions and methods to attract the brown marmorated stink bug (BMSB), Halyomorpha halys” (United States of America as Represented by the Secretary of …, priority 2012, dated 2016)

System: brown marmorated stink bug (BMSB), Halyomorpha halys
Assay: Synergy trials for attraction of BMSB to #10 and MDT, black pyramid traps
Type: in vivo
Method: Synergy trials for attraction of BMSB to #10 and methyl (2E,4E,6Z)-decatrieonate (MDT): From 6 Apr. to 23 Oct. […] Va. (3 replicates), we tested the following four treatments for attraction of BMSB adults and nymphs, using a full-sized black pyramid trap adapted for BMSB (see above): (1) #10 lure (Table 4) replaced every 2 weeks; (2) #3 lure, MDT, (Sterling International, Spokane, Wash.; ˜119 mg loading; see text below), replaced every 4 weeks; (3) #14 lure, in which #10 and MDT lures hung together in trap, replaced as above for each lure; and (4) no lure (control).
The MDT lure obtained from Sterling International was extracted with pentane which yielded 420 mg of crude product. According to TLC analysis on silica using dichloromethane, the extracted material contained MTD (Rf 0.46) plus unknown chemical(s) with Rf 0.20. This material was flash chromatographed on silica with hexane:dichloromethane, 1:1, to obtain 119 mg of pure MDT. The identity of MDT was re-confirmed by comparison of the gas chromatographic retention time and mass-spectrum with those of a standard prepared according to Khrimian (Khrimian, A., Tetrahedron, 61: 3651-3657 (2005)).
Traps were checked and collected twice-weekly in Beltsville, and weekly in Arden, as described previously, and the treatments were re-randomized at each collection. Field trapping results were summed by approximately two-week intervals, and the totals for each replicate analyzed by ANOVA and additionally with Tukey's HSD multiple comparisons at α=0.05 if the overall 1-way ANOVA F-test was significant at α=0.05. In addition, a two-way ANOVA with interaction was tested to determine if the combined lure provoked a different level of attractiveness (a significant interaction) than would be expected from a combination of the attractiveness of each separate lure type. Such an interaction, with numbers exceeding the expected attraction for the combined lure, represents a true synergy of the two lures.

[1] = Arden, WV 2012, 15May-23 Oct, TOTAL
[2] = Arden, WV 2012, Aug2-13, 11-day total
[3] = Arden, WV 2012, Aug13-27, 14-day total
[4] = Arden, WV 2012, Aug27-Sep10, 14-day total
[5] = Arden, WV 2012, July2-17, 15-day total
[6] = Arden, WV 2012, July17-Aug2, 16-day total
[7] = Arden, WV 2012, June4-19, 15-day total
[8] = Arden, WV 2012, June19-July2, 13-day total
[9] = Arden, WV 2012, May 16-23, 7-day total
[10] = Arden, WV 2012, May23-Jun4, 14-day total
[11] = Arden, WV 2012, Oct9-23, 14-day total
[12] = Arden, WV 2012, Sep10-24, 14-day total
[13] = Arden, WV 2012, Sep24-Oct9, 17-day total
[14] = Arden, WV, 3 replicates, 20 May through 23 Oct. 2012
[15] = Arden, WV, 20 May through 23 Oct. 2012
[16] = Beltsville, MD 2012, 4-22 May, 18-day total, 4 traps/trtmt
[17] = Beltsville, MD 2012, 5-19 June, 14-day total, 4 traps/trtmt
[18] = Beltsville, MD 2012, 5-23Oct, 18-day total, 4 traps/trtmt
[19] = Beltsville, MD 2012, 6-20 April, 14-day total, 4 traps/trtmt
[20] = Beltsville, MD 2012, 6APR-23OCT, Total
[21] = Beltsville, MD 2012, 6APR-23OCT, Total, 4 traps/trtmt
[22] = Beltsville, MD 2012, 7-21 Sept, 14-day total, 4 traps/trtmt
[23] = Beltsville, MD 2012, 10-24 Aug, 14-day total, 4 traps/trtmt
[24] = Beltsville, MD 2012, 13-27 July
[25] = Beltsville, MD 2012, 13-27 July, 14-day total, 4 traps/trtmt
[26] = Beltsville, MD 2012, 19-29 June
[27] = Beltsville, MD 2012, 19-29 June, 10-day total, 4 traps/trtmt
[28] = Beltsville, MD 2012, 20 April-4 May, 14-day total, 4 traps/trtmt
[29] = Beltsville, MD 2012, 21Sep-5 Oct
[30] = Beltsville, MD 2012, 21Sep-5 Oct, 14-day total, 4 traps/trtmt
[31] = Beltsville, MD 2012, 24Aug-7Sept
[32] = Beltsville, MD 2012, 24Aug-7Sept, 14-day total, 4 traps/trtmt
[33] = Beltsville, MD 2012, 27 July-10 Aug
[34] = Beltsville, MD 2012, 27 July-10 Aug, 14-day total, 4 traps/trtmt
[35] = Beltsville, MD 2012, 29 June-13 July
[36] = Beltsville, MD 2012, 29 June-13 July, 14-day total, 4 traps/trtmt
[37] = Beltsville, MD, 4 replicates, 6 April through 23 Oct. 2012
[38] = Beltsville, MD, 6 April through 23 Oct. 2012

CCC\C=C/C=C/C=C/C(=O)OC [Lure #3, Methyl (2E,4E,6Z)-decatrienoate]
adults captured [1]: 999
adults captured (% of total) [1]: 17.9%
nymphs captured [1]: 386
nymphs captured (% of total) [1]: 18.4%
adults captured (% of total) (Arden, WV 2012, Aug2-13): 10.40%
nymphs captured (% of total) (Arden, WV 2012, Aug2-13): 9.5%
adults captured [2]: 7
nymphs captured [2]: 38
adults captured (% of total) (Arden, WV 2012, Aug13-27): 3.10%
nymphs captured (% of total) (Arden, WV 2012, Aug13-27): 10.0%
adults captured [3]: 4
nymphs captured [3]: 51
adults captured (% of total) (Arden, WV 2012, Aug27-Sep10): 1.60%
nymphs captured (% of total) (Arden, WV 2012, Aug27-Sep10): 42.8%
adults captured [4]: 3
nymphs captured [4]: 68
adults captured (% of total) (Arden, WV 2012, July2-17): 0%
nymphs captured (% of total) (Arden, WV 2012, July2-17): 5.0%
adults captured [5]: 0
nymphs captured [5]: 8
adults captured (% of total) (Arden, WV 2012, July17-Aug2): 0%
nymphs captured (% of total) (Arden, WV 2012, July17-Aug2): 22.2%
adults captured [6]: 0
nymphs captured [6]: 8
adults captured (% of total) (Arden, WV 2012, June4-19): 0%
adults captured [7]: 0
nymphs captured [7]: 0
adults captured (% of total) (Arden, WV 2012, June19-July2): 0%
nymphs captured (% of total) (Arden, WV 2012, June19-July2): 0%
adults captured [8]: 0
nymphs captured [8]: 0
adults captured (% of total) (Arden, WV 2012, May 16-23): 0%
adults captured [9]: 0
nymphs captured [9]: 0
adults captured (% of total) (Arden, WV 2012, May23-Jun4): 0%
adults captured [10]: 0
nymphs captured [10]: 0
adults captured (% of total) (Arden, WV 2012, Oct9-23): 28.90%
nymphs captured (% of total) (Arden, WV 2012, Oct9-23): 60.5%
adults captured [11]: 120
nymphs captured [11]: 20
adults captured (% of total) (Arden, WV 2012, Sep10-24): 12.70%
nymphs captured (% of total) (Arden, WV 2012, Sep10-24): 23.9%
adults captured [12]: 333
nymphs captured [12]: 135
adults captured (% of total) (Arden, WV 2012, Sep24-Oct9): 25.20%
nymphs captured (% of total) (Arden, WV 2012, Sep24-Oct9): 25.7%
adults captured [13]: 532
nymphs captured [13]: 58
Season-long total captures of BMSB adults [14]: 999 b
Season-long total captures of BMSB nymphs [14]: 386 b
Season-long captures of BMSB adults, share of TOTAL [15]: 17.9%
Season-long captures of BMSB nymphs, share of TOTAL [15]: 18.4%
adults captured (% of total) (Beltsville, MD 2012, 4-22 May): 2.10%
adults captured [16]: 2
nymphs captured [16]: 0
adults captured (% of total) (Beltsville, MD 2012, 5-19 June): 4.20%
nymphs captured (% of total) (Beltsville, MD 2012, 5-19 June): 25.10%
adults captured [17]: 6
nymphs captured [17]: 63
adults captured (% of total) (Beltsville, MD 2012, 5-23Oct): 17.50%
nymphs captured (% of total) (Beltsville, MD 2012, 5-23Oct): 35.70%
adults captured [18]: 6
nymphs captured [18]: 5
adults captured (% of total) (Beltsville, MD 2012, 6-20 April): 10.20%
adults captured [19]: 6
nymphs captured [19]: 0
adults captured (% of total) [20]: 10.40%
nymphs captured (% of total) [20]: 28.30%
adults captured [21]: 1203
nymphs captured [21]: 1823
adults captured (% of total) (Beltsville, MD 2012, 7-21 Sept): 20.30%
nymphs captured (% of total) (Beltsville, MD 2012, 7-21 Sept): 30.00%
adults captured [22]: 314
nymphs captured [22]: 36
adults captured (% of total) (Beltsville, MD 2012, 10-24 Aug): 4.60%
nymphs captured (% of total) (Beltsville, MD 2012, 10-24 Aug): 14.80%
adults captured [23]: 7
nymphs captured [23]: 212
adults captured (% of total) [24]: 0.00%
nymphs captured (% of total) [24]: 20.30%
adults captured [25]: 0
nymphs captured [25]: 13
adults captured (% of total) [26]: 0.00%
nymphs captured (% of total) [26]: 1.30%
adults captured [27]: 0
nymphs captured [27]: 6
adults captured (% of total) (Beltsville, MD 2012, 20 April-4 May): 21.90%
adults captured [28]: 7
nymphs captured [28]: 0
adults captured (% of total) [29]: 27.90%
nymphs captured (% of total) [29]: 40.50%
adults captured [30]: 440
nymphs captured [30]: 17
adults captured (% of total) (Beltsville, MD 2012, 22 May-5 June): 2.90%
nymphs captured (% of total) (Beltsville, MD 2012, 22May-5June): 38.90%
adults captured (Beltsville, MD 2012, 22 May-5 June, 14-day total, 4 traps/trtmt): 3
nymphs captured (Beltsville, MD 2012, 22May-5June, 14-day total, 4 traps/trtmt): 7
adults captured (% of total) [31]: 22.20%
nymphs captured (% of total) [31]: 41.80%
adults captured [32]: 393
nymphs captured [32]: 1018
adults captured (% of total) [33]: 6.10%
nymphs captured (% of total) [33]: 30.80%
adults captured [34]: 14
nymphs captured [34]: 406
adults captured (% of total) [35]: 8.60%
nymphs captured (% of total) [35]: 14.50%
adults captured [36]: 5
nymphs captured [36]: 40
Season-long total captures of BMSB adults [37]: 1203 b
Season-long total captures of BMSB nymphs [37]: 1823 b
Season-long captures of BMSB adults, share of TOTAL [38]: 20.4%
Season-long captures of BMSB nymphs, share of TOTAL [38]: 28.3%
